According to patent US20030096760A1, “Method of antagonizing the human SRC SH2 domain” (SmithKlineBeecham Corporation, priority 1997, published 2003):
*1 amine or outer side, *2 acyl side, *3 side chain or, on linkers, in order; H or OH if unused. Where a SMILES comes first, the peptide text is derived from it. [ ]: non-standard residue; d: D form. X1 = O=C1OC(O)c2cc(C[C@H](N[*:1])C(=O)[*:2])ccc21

Molecular target: T1, human src SH2 domain (Homo sapiens, UniProt P12931)
T1 construct: made in house; host or cells: E. coli strain AR120 (vector pEA1KnRBS3)
Experiment: ELISA-based binding assay of human src SH2 domain fusion protein and biotinylated pY peptide
Settings: DET1-DET2-spacer-ek-src SH2 fusion protein; 0.1 uM biotinylated pY peptide; 3 hr at 4° C.; read-out: Activity at cloned human Src SH2 domain (IC50)
Experimental: The inhibitory activity of compounds at the human src SH2 domain was determined in vitro using the human src SH2 domain expressed as fusion proteins in E. coli.
The fusion protein containing the human SH2 domain was expressed as the general sequence: DET1-DET2-spacer-ek-SH2, where DET1, DET2, spacer, ek and SH2 are as described below. DET1 (“defined epitope tag 1”) (SEQ ID NO: 1) is an 11 amino acid sequence found in the Human Immunodeficiency Virus Type 1 (HIV-1) envelope protein gp120 (or gp160). Monoclonal antibodies to various epitopes of HIV-1 gp120 (or gp160) are known in the art, see, for example U.S. Pat. No. 5,166,050. One preferred example is monoclonal antibody 178.1 (see, e.g., Thiriart et al., J. Immunol., 143:1832-1836 (1989)), which was prepared by immunization of mice with a yeast-expressed HIV-1 gp160 molecule from strain BH10 (Ratner et al., Nature, 313:277-284 (1985)). This tag was used for detection of expression (by Western blot), for purification of the protein (by affinity chromatography), and for configuring assays in which the fusion protein was captured or immobilized using the 178.1 antibody. DET2 is a hexa-histidine sequence tag (SEQ ID NO: 2) which binds to nickel-containing resins and was used for purification purposes. Spacer (SEQ ID NO: 3) was utilized to design a BamH1 restriction site at the indicated position of the construct. […]

T1 sequence (P12931 151-248 limits assumed): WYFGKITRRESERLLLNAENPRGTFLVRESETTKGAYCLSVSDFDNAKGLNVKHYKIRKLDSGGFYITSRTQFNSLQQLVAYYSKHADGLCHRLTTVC

CC[C@H](C)[C@H](NC(=O)[C@H](CCC(=O)O)NC(=O)[C@H](CCC(=O)O)NC(=O)[C@H](Cc1ccc2c(c1)C(O)OC2=O)NC(C)=O)C(=O)N[C@@H](CCC(=O)O)C(N)=O (stereo partly drawn) [Compound 1, (S)-alpha-(acetylamino)-1,3-dihydro-3-hydroxy-1-oxo-5-isobenzofuranpropanamido-glutamate-glutamate-isoleucine-glutamate-amine] (Ac-[X1]EEIE-NH2)
IC50: 0.25 µM
